Laboratory results from US20230277597A1, “HAPLOIDENTICAL MIXED CHIMERISM FOR TREATING AUTOIMMUNE DISEASES” (CITY OF HOPE, priority 2020, published 2023).

System: Foxp3^+ Treg cells
Experiment: In vivo Treg depletion with diphtheria toxin in Haplo-MC NOD mice carrying Foxp3^DTR
Parameters: species or system mouse
Details: for mice insulitis free in all the evaluated islets: 3 weeks after first injection

Question: diphtheria toxin [DT] was tested. Which “insulitis after depletion of donor-type or host-type Treg cells” value (DT every 3 days for 21 days, H-2^b/g7 mixed chimeric NOD mice) did it give?
Answer: significant but moderate recurrence of insulitis, without causing hyperglycemia

Question: And the “reduction of donor-type Treg” value (DT every 3 days for 21 days, donor cells carrying Foxp3^DTR)?
Answer: ~95%

Question: And the “reduction of host-type Treg” value (DT every 3 days for 21 days, host cells carrying Foxp3^DTR)?
Answer: ~90%

Question: What about the “mice insulitis free in all the evaluated islets” value (donor-type Treg depleted chimeric mice) of the same substance?
Answer: 50%

Question: And the “mice insulitis free in all the evaluated islets” value (host-type Treg depleted chimeric mice)?
Answer: 33%
